According to patent publication US20190049456A1, “METHOD FOR DETECTING OR SEPARATING/OBTAINING CIRCULATING TUMOR CELL EMPLOYING CELL PROLIFERATION METHOD” (priority 2016, published 2019):

System: circulating tumor cell (CTC)
Test: CTC obtainment test (CTCs-inducing ability / CTC yield efficiency) by culture of patient PBMCs in test culture media
Format: cell-based, human
Conditions: additive component study
Procedure: Examples of the present invention followed experimental methods given below. Specifically, all experimental samples (peripheral blood from various cancer patients who donated blood) were aseptically treated by procedures given below. In the case where infections by various viruses such as HBV and HCV were found in advance according to information from each cooperating facility, the treatment thereof was tested aside from a non-infected group and proper medical waste treatment was carried out by medical waste treatment professionals. 1. A disposable 30 ml syringe for blood collection containing an appropriate amount of an anticoagulant heparin sodium (0.05 ml) was provided, and a disposable 30 ml blood collection syringe for serum procurement containing no heparin sodium was also provided. These syringes were respectively connected to insertion ports of L-type 180° three-way stopcock, while an appropriate 18-, 21- or 24-gauge butterfly needle was connected to the vascular vessel side to prepare for blood collection. 30 ml of blood per each sample was collected, and the following separation operation was carried out. 2. For serum collection, the blood collection syringe barrel with a needle put thereon was placed at 37° C. for 1 hour in a 5% CO2 incubator, followed by centrifugation at 3,000 rpm (800 G) at 4° C. for 30 minutes. […]

Substance: lipopolysaccharide [LPS]
- CTC-inducing effect: slightly observed
